Our source for the IC50 values is patent publication US20240254129A1, “HETEROCYCLIC COMPOUNDS AND USES THEREOF” (Kumquat Biosciences Inc., priority 2021, published 2024).

The target of experiment [1] is GST-tagged K-Ras mutant / His-tagged hSOS1 (Homo sapiens, UniProt P01116). The experiment in a line: HTRF assay, K-Ras mutant / SOS1 interaction. The settings on record: compound nos. 401-703; read-out: IC50 against mutant Kras. The format is binding. Summed up:
(§1)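 Inhibition of wildtype or mutant K-Ras binding to hSOS1 is measured by FRET between antibody-bound Eu donor and XL665 acceptor. Protein levels are matched to the IC50 range under study. The 665/620 nm signal after ≥10 min yields IC50.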

For experiment [2], the target named is T1, wildtype Kras / hSOS1 (Homo sapiens, UniProt P01116).
T1 construct: made in house; host or cells: E. coli BL21 (DE3)
T1 sequence (P01116 1-188 isoform P01116-2): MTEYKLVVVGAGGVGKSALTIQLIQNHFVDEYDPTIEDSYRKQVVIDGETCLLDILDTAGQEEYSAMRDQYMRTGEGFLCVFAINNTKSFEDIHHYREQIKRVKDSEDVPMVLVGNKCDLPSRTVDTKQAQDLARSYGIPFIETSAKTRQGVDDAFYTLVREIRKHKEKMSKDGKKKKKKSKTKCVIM
In words: HTRF assay, wildtype Kras / SOS1 interaction. The format is binding. Particulars: compound nos. 401-703; read-out: IC50 against wildtype Kras. The method in brief:
as §1

Molecules are shown by their SMILES.

Sequence of GST-tagged K-Ras mutant / His-tagged hSOS1 (P01116 whole entry G12D, form open): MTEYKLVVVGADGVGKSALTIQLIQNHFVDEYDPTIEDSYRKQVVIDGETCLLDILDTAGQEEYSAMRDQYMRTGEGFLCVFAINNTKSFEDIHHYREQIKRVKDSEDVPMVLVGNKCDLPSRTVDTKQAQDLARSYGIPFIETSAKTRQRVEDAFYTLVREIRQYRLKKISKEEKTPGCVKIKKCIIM

With `CN1CCC[C@H]1COc1nc(N2CCCC(C(=O)O)CC2)c2cc(Cl)c(-c3cccc4sc(N)nc34)c(F)c2n1` (stereo partly drawn) [Compound 414, 1-(7-(2-aminobenzo[d]-thiazol-4-yl)-6-chloro-8-fluoro-2-(((S)-1-methyl-pyrrolidin-2-yl)methoxy)-quinazolin-4-yl)azepane-4-carboxylic acid], the IC50 was greater than 500 nM in experiment [1] and less than 500 nM in experiment [2].

Consider `CC1CCCN(c2nc(OC[C@@H]3CCCN3C)nc3c(F)c(-c4cccc5sc(N)nc45)c(Cl)cc23)CC1` (stereo partly drawn) [Compound 416, 4-(6-chloro-8-fluoro-4-(4-methylazepan-1-yl)-2-(((S)-1-methylpyrrolidin-2-yl)-methoxy)quinazolin-7-yl)-benzo[d]thiazol-2-amine], for which the IC50 is greater than 500 nM in experiment [1] and less than 500 nM in experiment [2].

Take `Cc1ccc(C(N)=O)cc1-c1c(Cl)cc2c(N3CC4CCC(C3)N4)nc(OCC34CCCN3CCC4)nc2c1F` [Compound 417, 3-(4-(3,8-diazabicyclo-[3.2.1]octan-3-yl)-6-chloro-8-fluoro-2-((tetrahydro-1H-pyrrolizin-7a(5H)-yl)meth-oxy)quinazolin-7-yl)-4-methylbenzamide]: the IC50 was greater than 500 nM in experiment [1] and less than 500 nM in experiment [2].

`Oc1cc(-c2ncc3c(N4C[C@H]5CC[C@@H](C4)N5)nc(OC[C@@]45CCCN4C[C@H](F)C5)nc3n2)c2ccccc2c1` [Compound 418, 4-(5-((1R,5S)-3,8-diazabicyclo[3.2.1]octan-3-yl)-7-(((2R,7aS)-2-fluorotetrahydro-1H-pyrrolizin-7a(5H)-yl)methoxy)pyrimido[4,5-d]pyrimidin-2-yl)naphthalen-2-ol]: the IC50 was greater than 500 nM in experiment [1] and less than 500 nM in experiment [2].

On to `CN1CCC[C@H]1COc1nc2c(c(N3CCNCC(F)(F)C3)n1)CCN(c1cc(O)cc3ccccc13)C2` [Compound 419, (S)-4-(4-(6,6-difluoro-1,4-diazepan-1-yl)-2-((1-methylpyrrolidin-2-yl)methoxy)-5,8-dihydropyrido[3,4-d]pyrimidin-7(6H)-yl)naphthalen-2-ol], for which the IC50 in experiment [1] and in experiment [2] was less than 500 nM throughout.

With `CN1CCCC1CCn1nc(N2CC3CCC(C2)N3)c2ccc(-c3ccc(F)c4sc(N)nc34)c(F)c2c1=O` (stereo not drawn) [Compound 420, 7-(2-amino-7-fluorobenzo-[d]thiazol-4-yl)-4-(3,8-diazabicyclo[3.2.1]octan-3-yl)-8-fluoro-2-(2-(1-methyl-pyrrolidin-2-yl)ethyl)phthal-azin-1(2H)-one], the IC50 in experiment [1] was greater than 500 nM; in experiment [2], less than 500 nM.

As to `Fc1c(-c2cccc3c2C2CC2C3)c(Cl)cc2c(N3CC4CCC(C3)N4)nc(OC[C@@]34CCCN3C[C@H](F)C4)nc12` (stereo partly drawn) [Compound 422, 4-(3,8-diazabicyclo[3.2.1]-octan-3-yl)-6-chloro-8-fluoro-2-(((2R,7aS)-2-fluoro-tetrahydro-1H-pyrrolizin-7a(5H)-yl)methoxy)-7-(1,1a,6,6a-tetrahydrocyclo-propa[a]inden-2-yl)quin-azoline], the IC50 is greater than 500 nM in experiment [1] and less than 500 nM in experiment [2].

In the case of `Fc1c(-c2cccc3scc(Cl)c23)c(Cl)cc2c(N3CC4CCC(C3)N4)nc(OC[C@@]34CCCN3C[C@H](F)C4)nc12` [Compound 423, 4-(3,8-diazabicyclo[3.2.1]-octan-3-yl)-6-chloro-7-(3-chlorobenzo[b]thiophen-4-yl)-8-fluoro-2-(((2R,7aS)-2-fluorotetrahydro-1H-pyrrolizin-7a(5H)-yl)meth-oxy)quinazoline], the IC50 in experiment [1] was greater than 500 nM; in experiment [2], less than 500 nM.

Take `CO[C@@H]1CN(C)C[C@H]1Oc1nc(N2CC3CCC(C2)N3)c2cc(CCC#N)c(-c3ccc(F)c4sc(N)nc34)c(F)c2n1` [Compound 424, 3-(7-(2-amino-7-fluoro-benzo[d]thiazol-4-yl)-4-(3,8-diazabicyclo[3.2.1]octan-3-yl)-8-fluoro-2-(((3R,4R)-4-methoxy-1-methylpyrrolidin-3-yl)oxy)quinazolin-6-yl)-propanenitrile]: the IC50 in experiment [1] is greater than 500 nM; in experiment [2], less than 500 nM.

On to `Cc1cc2[nH]ncc2c(-c2c(Cl)cc3c(N4CC5CCC(C4)N5)nc(OC[C@@]45CCCN4C[C@H](F)C5)nc3c2F)c1Cl` [Compound 425, 4-(3,8-diazabicyclo[3.2.1]-octan-3-yl)-6-chloro-7-(5-chloro-6-methyl-1H-indazol-4-yl)-8-fluoro-2-(((2R,7aS)-2-fluorotetrahydro-1H-pyrrolizin-7a(5H)-yl)meth-oxy)quinazoline], for which the IC50 in experiment [1] was greater than 500 nM; in experiment [2] it was less than 500 nM.

Consider `Cc1ccc2sc(N)nc2c1-c1c(Cl)cc2c(N3CCNCC(F)(F)C3)nc(OCC34CCCN3CCC4)nc2c1O` [Compound 426, 7-(2-amino-5-methylbenzo-[d]thiazol-4-yl)-6-chloro-4-(6,6-difluoro-1,4-diazepan-1-yl)-2-((tetrahydro-1H-pyrrolizin-7a(5H)-yl)meth-oxy)quinazolin-8-ol], for which the IC50 in experiment [1] is greater than 500 nM; in experiment [2] it was less than 500 nM.

For the compound `CN1CCC[C@H]1COc1nc(N2CCCC(C(N)=O)CC2)c2cc(Cl)c(-c3cccc4sc(N)nc34)c(F)c2n1` (stereo partly drawn) [Compound 427, 1-(7-(2-aminobenzo[d]-thiazol-4-yl)-6-chloro-8-fluoro-2-(((S)-1-methylpyr-rolidin-2-yl)methoxy)quin-azolin-4-yl)azepane-4-carboxamide], the IC50 in experiment [1] and in experiment [2] was less than 500 nM in each case.

Consider `CN(C)CC1(COc2nc(N3CC4CCC(C3)N4)c3ccc(-c4ccc(F)c5sc(N)nc45)c(F)c3n2)CC1` [Compound 428, 4-(4-(3,8-diazabicyclo-[3.2.1]-octan-3-yl)-2-((1-((dimethylamino)methyl)-cyclopropyl)methoxy)-8-fluoroquinazolin-7-yl)-7-fluorobenzo[d]thiazol-2-amine], for which the IC50 in experiment [1] was greater than 500 nM; in experiment [2] it was less than 500 nM.

In the case of `Nc1cccc(-c2c(Cl)cc3c(N4CCCCCC4)nc(OCC45CCCN4CCC5)nc3c2F)c1F` [Compound 430, 3-(4-(azepan-1-yl)-6-chloro-8-fluoro-2-((tetrahydro-1H-pyrrolizin-7a(5H)-yl)meth-oxy)quinazolin-7-yl)-2-fluoroaniline], the results for the IC50 in experiment [1] and in experiment [2] were greater than 500 nM and less than 500 nM, respectively.

For the compound `Nc1nc2c(-c3c(Cl)cc4c(N5CCCC(N)CC5)nc(OC[C@@]56CCCN5C[C@H](F)C6)nc4c3F)ccc(F)c2s1` (stereo partly drawn) [Compound 431, 4-(4-(4-aminoazepan-1-yl)-6-chloro-8-fluoro-2-(((2R,7aS)-2-fluorotetra-hydro-1H-pyrrolizin-7a(5H)-yl)methoxy)quinazolin-7-yl)-7-fluorobenzo[d]thiazol-2-amine], the IC50 in experiment [1] and in experiment [2] was less than 500 nM in each case.

Turning to `CN1CCC[C@H]1COc1nc2c(c(N3CCNCC(F)(F)C3)n1)CCC(c1cccc3sc(N)nc13)C2` (stereo partly drawn) [Compound 432, 4-(4-(6,6-difluoro-1,4-diazepan-1-yl)-2-(((S)-1-methylpyrrolidin-2-yl)methoxy)-5,6,7,8-tetrahydroquinazolin-7-yl)benzo[d]thiazol-2-amine], the results for the IC50 in experiment [1] and in experiment [2] were greater than 500 nM and less than 500 nM, respectively.

Take `N#CC1CCCN(c2nc(OC[C@@]34CCCN3C[C@H](F)C4)nc3c(F)c(-c4ccc(F)c5sc(N)nc45)c(Cl)cc23)CC1` (stereo partly drawn) [Compound 433, 1-(7-(2-amino-7-fluoro-benzo[d]thiazol-4-yl)-6-chloro-8-fluoro-2-(((2R,7aS)-2-fluorotetra-hydro-1H-pyrrolizin-7a(5H)-yl)methoxy)quin-azolin-4-yl)azepane-4-carbonitrile]: the IC50 in experiment [1] and in experiment [2] was less than 500 nM each time.

In the case of `Nc1nc2c(-c3c(Cl)cc4c(N5CCC[C@@H](N)CC5)nc(OC[C@@]56CCCN5C[C@H](F)C6)nc4c3F)ccc(F)c2s1` [Compound 434, 4-(4-((R)-4-aminoazepan-1-yl)-6-chloro-8-fluoro-2-(((2R,7aS)-2-fluorotetra-hydro-1H-pyrrolizin-7a(5H)-yl)methoxy)quinazolin-7-yl)-7-fluorobenzo[d]thiazol-2-amine], the IC50 in experiment [1] and in experiment [2] was less than 500 nM each time.

As to `Nc1nc2c(-c3c(Cl)cc4c(N5CCCN(S(=O)(=O)C6CC6)CC5)nc(OC[C@@]56CCCN5C[C@H](F)C6)nc4c3F)ccc(F)c2s1` [Compound 435, 4-(6-chloro-4-(4-(cyclo-propylsulfonyl)-1,4-diazepan-1-yl)-8-fluoro-2-(((2R,7aS)-2-fluorotetra-hydro-1H-pyrrolizin-7a(5H)-yl)methoxy)quinazolin-7-yl)-7-fluorobenzo[d]thiazol-2-amine], the IC50 in experiment [1] and in experiment [2] was less than 500 nM throughout.

Consider `Cc1c(N)sc2cccc(-c3ccc4c(N5CC6CCC(C5)N6)nc(OC[C@@]56CCCN5C[C@H](F)C6)nc4c3F)c12` [Compound 437, 4-(4-(3,8-diazabicyclo-[3.2.1]octan-3-yl)-8-fluoro-2-(((2R,7aS)-2-fluorotetra-hydro-1H-pyrrolizin-7a(5H)-yl)methoxy)quinazolin-7-yl)-3-methylbenzo[b]thio-phen-2-amine], for which the IC50 in experiment [1] is greater than 500 nM; in experiment [2] it was less than 500 nM.

Regarding `Cc1ccc2cnn(C)c2c1-c1c(Cl)cc2c(N3CC4CCC(C3)N4)nc(OCC3(CN4CCCC4)CC3)nc2c1F` [Compound 438, 4-(3,8-diazabicyclo[3.2.1]-octan-3-yl)-6-chloro-7-(1,6-dimethyl-1H-indazol-7-yl)-8-fluoro-2-((1-(pyrrolidin-1-ylmethyl)cyclopropyl)meth-oxy)quinazoline], the IC50 in experiment [1] was greater than 500 nM; in experiment [2], less than 500 nM.
